# Test results from patent US5049547A, “Composition for stimulating integumental melanocytes” (University Patents, Inc., priority 1989, dated 1991).
# “And” between values parts separate entries of the source, which are not always exact repeats. Identical values can stand only once. Like-named read-outs stand apart in the source and are kept apart here. Non-standard residues stand in square brackets, D forms with d. Residues, ends and D or L forms follow the SMILES beside them. dPhg = N[C@@H](C(=O)O)c1ccccc1; Nle = CCCC[C@H](N)C(=O)O
# Assays:
# frog (Rana pipiens) skin = type: cell-based
# Method: (§1) Biological effect on in vivo and in vitro melanosome dispersion was examined using the frog (Rana pipiens) and the lizard (Anolis caroliniensis). [Hadley et al., ,Science 213:1025-1027(1981)]; similar examinations were conducted with respect to the duration of its ability to stimulate melanosome dispersion in vitro using the skin bioassay as described in Shimume, Endrochrinology, 54:553-560(1954). The in vitro results are depicted in Table I.
# [1] = system: lizard (Anolis caroliniensis) skin; assay: in vitro lizard skin bioassay, melanosome dispersion; type: cell-based; conditions: alpha-MSH = 1.0
# Method: as §1
# [2] = system: TA-98 strain of S. typhimurium; assay: Ames microbacterial assay; conditions: spontaneous revertants subtracted
# Method: The Ames microbacterial assay was used for these tests which were performed both with and without a microsomal enzyme/NADPH generating system. Briefly, this test measures the number of reverse mutations which occur in special histidine-dependent strains of Salmonella typhimurium. Positives (mutations) are scored as the number of revertant cells which are able to form colonies in a histidine-deficient growth medium after exposure to a mutagenic substance.
# All substances were dissolved in sterile 0.9% sodium chloride (without preservatives) to concentrations of 10^-2, 10^-3 and 10^-4 Molar. The TA-98 strain of S. typhimurium was used and experiments were performed with and without exposure to S-9 rat liver microsomal enzymes and an NADPH generating system. This enzyme cocktail can metabolically activate some compounds to mutagenic species. In addition to the melanotropins, doxorybicin (Adriamycin™) was also simultaneously tested. […] It was thus included to act as a positive control. […] For the actual evalution of revertants, the identity of the specific test compounds was blinded.
compound,measurement,setting,value
CC(=O)N[C@@H](CCC(=O)O)C(=O)N[C@@H](Cc1c[nH]cn1)C(=O)N[C@H](Cc1ccccc1)C(=O)N[C@@H](CCCNC(=N)N)C(=O)N[C@@H](Cc1c[nH]c2ccccc12)C(=O)NCC(=O)N[C@@H](CCCCN)C(N)=O [Ac-[D-Phe^7]-alpha-MSH5-11 -NH2] (Ac-EH[dF]RWGK-NH2),Relative Potency Frog,"frog (Rana pipiens) skin; in vitro, alpha-MSH = 1.0",0.01
CCCC[C@H](NC(C)=O)C(=O)N[C@@H](CCC(=O)O)C(=O)N[C@@H](Cc1c[nH]cn1)C(=O)N[C@@H](C)C(=O)N[C@@H](CCCNC(=N)N)C(=O)N[C@@H](Cc1c[nH]c2ccccc12)C(=O)NCC(=O)N[C@@H](CCCCN)C(N)=O [Ac-[Nle^4 -Ala^7]-alpha-MSH4-11 -NH2] (Ac-[Nle]EHARWGK-NH2),Relative Potency Frog,frog (Rana pipiens) skin,0.02
CCCC[C@H](NC(C)=O)C(=O)N[C@@H](CCC(=O)O)C(=O)N[C@@H](Cc1c[nH]cn1)C(=O)N[C@H](C)C(=O)N[C@@H](CCCNC(=N)N)C(=O)N[C@@H](Cc1c[nH]c2ccccc12)C(=O)NCC(=O)N[C@@H](CCCCN)C(N)=O [Ac-[Nle^4 -D-Ala^7]-alpha-MSH4-11 -NH2] (Ac-[Nle]EH[dA]RWGK-NH2),Relative Potency Frog,"frog (Rana pipiens) skin; in vitro, alpha-MSH = 1.0",0.000080
same,Relative Potency Lizard,[1],0.020
CCCC[C@H](NC(C)=O)C(=O)N[C@@H](CCC(=O)O)C(=O)N[C@@H](Cc1c[nH]cn1)C(=O)N[C@@H](Cc1ccccc1)C(=O)N[C@H](CCCNC(=N)N)C(=O)N[C@@H](Cc1c[nH]c2ccccc12)C(=O)NCC(=O)N[C@@H](CCCCN)C(N)=O [Ac-[Nle^4 -D-Arg^8]-alpha-MSH4-11 -NH2] (Ac-[Nle]EHF[dR]WGK-NH2),Relative Potency Frog,"frog (Rana pipiens) skin; in vitro, alpha-MSH = 1.0",0.000016
same,Relative Potency Lizard,[1],0.0022
CCCC[C@H](NC(C)=O)C(=O)N[C@@H](CCC(=O)O)C(=O)N[C@@H](Cc1c[nH]cn1)C(=O)N[C@H](Cc1ccccc1)C(=O)N[C@@H](CCCNC(=N)N)C(=O)N[C@H](Cc1c[nH]c2ccccc12)C(N)=O [Ac-[Nle^4 -D-Phe^7 -D-Trp^9]-alpha-MSH4-9 -NH2] (Ac-[Nle]EH[dF]R[dW]-NH2),Relative Potency Frog,"frog (Rana pipiens) skin; in vitro, alpha-MSH = 1.0",0.03
same,Relative Potency Lizard,[1],3.8
CCCC[C@H](NC(C)=O)C(=O)N[C@@H](CCC(=O)O)C(=O)N[C@@H](Cc1c[nH]cn1)C(=O)N[C@H](Cc1ccccc1)C(=O)N[C@@H](CCCNC(=N)N)C(=O)N[C@@H](Cc1ccccc1)C(=O)NCC(=O)N[C@@H](CCCCN)C(N)=O [Ac-[Nle^4 -D-Phe^7 -Phe^9]-alpha-MSH4-11 -NH2] (Ac-[Nle]EH[dF]RFGK-NH2),Relative Potency Frog,"frog (Rana pipiens) skin; in vitro, alpha-MSH = 1.0",0.017
CCCC[C@H](NC(C)=O)C(=O)N[C@@H](CCC(=O)O)C(=O)N[C@@H](Cc1c[nH]cn1)C(=O)N[C@H](Cc1ccccc1)C(=O)N[C@@H](CCCNC(=N)N)C(=O)N[C@@H](Cc1c[nH]c2ccccc12)C(=O)NCC(N)=O [Ac-[Nle^4 -D-Phe^7]-alpha-MSH4-10 -NH2],Relative Potency Frog,"frog (Rana pipiens) skin; in vitro, alpha-MSH = 1.0",0.02
same,REVERTANTS PER PLATE WITH S-9,[2]; 10^-2 M,0
same,[…] PLATE WITHOUT S-9,[2]; 10^-2 M,0
same,REVERTANTS PER PLATE WITH S-9,[2]; 10^-3 M,0
same,[…] PLATE WITHOUT S-9,[2]; 10^-3 M,0
same,REVERTANTS PER PLATE WITH S-9,[2]; 10^-4 M,0
same,[…] PLATE WITHOUT S-9,[2]; 10^-4 M,0
CCCC[C@H](NC(C)=O)C(=O)N[C@@H](CCC(=O)O)C(=O)N[C@@H](Cc1c[nH]cn1)C(=O)N[C@@H](C(=O)N[C@@H](CCCNC(=N)N)C(=O)N[C@@H](Cc1c[nH]c2ccccc12)C(=O)NCC(=O)N[C@@H](CCCCN)C(N)=O)c1ccccc1 [Ac-[Nle^4 -D-Plg^7]-alpha-MSH4-11 -NH2] (Ac-[Nle]EH[dPhg]RWGK-NH2),Relative Potency Frog,"frog (Rana pipiens) skin; in vitro, alpha-MSH = 1.0",0.0003
same,Relative Potency Lizard,[1],0.0005
CCCC[C@H](NC(C)=O)C(=O)N[C@@H](CCC(=O)O)C(=O)N[C@@H](Cc1c[nH]cn1)C(=O)N[C@H](Cc1ccc(O)cc1)C(=O)N[C@@H](CCCNC(=N)N)C(=O)N[C@@H](Cc1c[nH]c2ccccc12)C(=O)NCC(=O)N[C@@H](CCCCN)C(N)=O [Ac-[Nle^4 -D-Tyr^7]-alpha-MSH4-11 -NH2] (Ac-[Nle]EH[dY]RWGK-NH2),Relative Potency Frog,"frog (Rana pipiens) skin; in vitro, alpha-MSH = 1.0",0.0020 and 0.0033
same,Relative Potency Lizard,[1],1.0
CCCC[C@H](NC(C)=O)C(=O)N[C@@H](CCC(=O)O)C(=O)N[C@@H](Cc1ccccc1)C(=O)N[C@H](Cc1ccccc1)C(=O)N[C@@H](CCCNC(=N)N)C(=O)N[C@@H](Cc1c[nH]c2ccccc12)C(=O)NCC(=O)N[C@@H](CCCCN)C(N)=O [Ac-[Nle^4 -Phe^6 -D-Phe^7]-alpha-MSH4-11 -NH2] (Ac-[Nle]EF[dF]RWGK-NH2),Relative Potency Frog,"frog (Rana pipiens) skin; in vitro, alpha-MSH = 1.0",0.012
CCCC[C@H](NC(C)=O)C(=O)N[C@@H](CCC(=O)O)C(=O)N[C@@H](Cc1c[nH]cn1)C(=O)N[C@@H](Cc1ccc(O)cc1)C(=O)N[C@@H](CCCNC(=N)N)C(=O)N[C@@H](Cc1c[nH]c2ccccc12)C(=O)NCC(=O)N[C@@H](CCCCN)C(N)=O [Ac-[Nle^4 -Tyr^7]-alpha-MSH4-11 -NH2] (Ac-[Nle]EHYRWGK-NH2),Relative Potency Lizard,[1],0.0090
CCCC[C@H](NC(C)=O)C(=O)N[C@@H](CCC(=O)O)C(=O)N[C@@H](Cc1c[nH]cn1)C(=O)N[C@@H](Cc1ccccc1)C(=O)N[C@@H](CCCNC(=N)N)C(=O)N[C@@H](Cc1c[nH]c2ccccc12)C(=O)NCC(=O)N[C@@H](CCCCN)C(N)=O [Ac-[Nle^4 ]-alpha-MSH4-11 -NH2] (Ac-[Nle]EHFRWGK-NH2),Relative Potency Frog,"frog (Rana pipiens) skin; in vitro, alpha-MSH = 1.0",0.0019
CCCC[C@H](NC(C)=O)C(=O)N[C@@H](CCC(=O)O)C(=O)N[C@@H](Cc1c[nH]cn1)C(=O)N[C@@H](Cc1ccccc1)C(=O)N[C@@H](CCCNC(=N)N)C(=O)N[C@@H](Cc1c[nH]c2ccccc12)C(N)=O [Ac-[Nle^4]-alpha-MSH4-9 -NH2] (Ac-[Nle]EHFRW-NH2),Relative Potency Frog,"frog (Rana pipiens) skin; in vitro, alpha-MSH = 1.0",0.0007
same,Relative Potency Lizard,[1],0.18
CC(=O)N[C@@H](Cc1ccc(O)cc1)C(=O)N[C@@H](CCC(=O)O)C(=O)N[C@@H](Cc1c[nH]cn1)C(=O)N[C@H](Cc1ccccc1)C(=O)N[C@@H](CCCNC(=N)N)C(=O)N[C@@H](Cc1c[nH]c2ccccc12)C(=O)NCC(=O)N[C@@H](CCCCN)C(N)=O [Ac-[Tyr^4 -D-Phe^7]-alpha-MSH4-11 -NH2] (Ac-YEH[dF]RWGK-NH2),Relative Potency Frog,"frog (Rana pipiens) skin; in vitro, alpha-MSH = 1.0",0.01
"COc1cccc2c1C(=O)c1c(O)c3c(c(O)c1C2=O)C[C@@](O)(C(=O)CO)C[C@@H]3O[C@H]1C[C@H](N)[C@H](O)[C@H](C)O1 [Adriamycin, Doxorubicin, reference compound]",[…] PLATE WITH S-9,[2]; 10 µg/ml,2500
same,[…] PLATE WITHOUT S-9,[2]; 10 µg/ml,230
same,[…] PLATE WITH S-9,[2]; 1.0 g/ml,100
same,[…] PLATE WITHOUT S-9,[2]; 1.0 g/ml,0
Ac-[Nle^4 -D-Phe^7 -D-Arg^8 ]-alpha-MSH4-,Relative Potency Lizard,[1],0.0022
Ac-[Phe-Gly^7 ]-alpha-MSH4-11 -NH2,Relative Potency Frog,"frog (Rana pipiens) skin; in vitro, alpha-MSH = 1.0",0.10
